This note sets out measurements from ChEMBL document CHEMBL1201862, “PubChem BioAssay data set” (2004).

Active and inactive are the calls of the source.

Assay [1] is described as follows: Luminescence Cell-Based Dose Confirmation to Identify Activators of 5'UTR Stem-Loop Driven Alpha-Synuclein mRNA Translation in H4 Neuroglioblastoma Cells. [Related pubchem assays: 1829 (Project Summary), 1814 (Primary HTS)]. It is filed as functional.
For assay [2], the system named is H4. Briefly: Luminescence Cell-Based Dose Response HTS to Identify Activators of 5'UTR Stem-Loop Driven Prion Protein mRNA Translation in H4 Neuroglioblastoma Cells. [Related pubchem assays: 1829 (Project Summary), 1814 (Primary HTS)]. The conditions noted are these: Homo sapiens. It is filed as functional.
Assay [3] is described as follows: Luminescence Cell-Based Dose Response to Identify Activators of Luciferase Translation or Activity in H4-C Neuroglioblastoma Cells. [Related pubchem assays: 1829 (Project Summary), 1814 (Primary HTS)]. The assay is classed as functional.
The nature of assay [4]: Luminescence Cell-Based Dose Response HTS to Identify Activators of Luciferase Translation or Activity in H4 […] Cells. [Related pubchem assays: 1829 (Project Summary), 1814 (Primary HTS)]. The assay is classed as functional.
The nature of assay [5]: Luminescence Cell-Based Dose Response to Identify Activators of 5'UTR Stem-Loop Driven Prion Protein mRNA Translation in H4-C Neuroglioblastoma Cells. [Related pubchem assays: 1829 (Project Summary), 1814 (Primary HTS)]. The assay is classed as functional.
Assay [6] addresses NADPH oxidase 1 (Homo sapiens, UniProt Q9Y5S8). It is filed as functional, cell-based.
Assay [7] is described as follows: non-specific cell cytotoxicity, dose response, cytotoxicity control for PAX8 inhibitor project, plate reader, dry powder samples (AID 743021). It is filed as functional, cell-based.
The target in assay [8] is T1, Heat shock factor protein 1 (Mus musculus, UniProt P38532).
T1 sequence (P38532 whole entry): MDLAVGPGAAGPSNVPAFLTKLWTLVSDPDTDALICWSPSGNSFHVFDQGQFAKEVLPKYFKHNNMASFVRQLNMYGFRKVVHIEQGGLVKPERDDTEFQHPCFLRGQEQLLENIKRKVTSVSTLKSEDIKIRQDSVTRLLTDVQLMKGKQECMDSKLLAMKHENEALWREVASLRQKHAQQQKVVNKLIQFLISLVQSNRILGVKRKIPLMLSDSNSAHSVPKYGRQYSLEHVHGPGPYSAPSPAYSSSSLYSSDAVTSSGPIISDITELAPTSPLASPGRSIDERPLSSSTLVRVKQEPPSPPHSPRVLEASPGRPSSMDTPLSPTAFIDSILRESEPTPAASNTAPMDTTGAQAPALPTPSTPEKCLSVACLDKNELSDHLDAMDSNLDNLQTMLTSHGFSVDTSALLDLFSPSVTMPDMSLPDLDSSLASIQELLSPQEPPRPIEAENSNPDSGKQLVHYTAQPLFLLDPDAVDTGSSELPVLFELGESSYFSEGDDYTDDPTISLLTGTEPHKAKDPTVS
Briefly: inhibition of MG132-induced HSE-luciferase signal, confirmation, cell-based, NIH3T3, luminescence, dose retest (AID 2382).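 Further: NIH3T3 fibroblasts with HSF1-driven luciferase reporter stressed by proteasome inhibitor MG132; luminescence from HSF1-driven luciferase expression after 8 hours of MG132 stress.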 It is filed as functional.

The target of assay [9] is T2, Replicative DNA helicase DnaB (Mycobacterium tuberculosis, UniProt P9WMR3).
T2 sequence (P9WMR3 whole entry): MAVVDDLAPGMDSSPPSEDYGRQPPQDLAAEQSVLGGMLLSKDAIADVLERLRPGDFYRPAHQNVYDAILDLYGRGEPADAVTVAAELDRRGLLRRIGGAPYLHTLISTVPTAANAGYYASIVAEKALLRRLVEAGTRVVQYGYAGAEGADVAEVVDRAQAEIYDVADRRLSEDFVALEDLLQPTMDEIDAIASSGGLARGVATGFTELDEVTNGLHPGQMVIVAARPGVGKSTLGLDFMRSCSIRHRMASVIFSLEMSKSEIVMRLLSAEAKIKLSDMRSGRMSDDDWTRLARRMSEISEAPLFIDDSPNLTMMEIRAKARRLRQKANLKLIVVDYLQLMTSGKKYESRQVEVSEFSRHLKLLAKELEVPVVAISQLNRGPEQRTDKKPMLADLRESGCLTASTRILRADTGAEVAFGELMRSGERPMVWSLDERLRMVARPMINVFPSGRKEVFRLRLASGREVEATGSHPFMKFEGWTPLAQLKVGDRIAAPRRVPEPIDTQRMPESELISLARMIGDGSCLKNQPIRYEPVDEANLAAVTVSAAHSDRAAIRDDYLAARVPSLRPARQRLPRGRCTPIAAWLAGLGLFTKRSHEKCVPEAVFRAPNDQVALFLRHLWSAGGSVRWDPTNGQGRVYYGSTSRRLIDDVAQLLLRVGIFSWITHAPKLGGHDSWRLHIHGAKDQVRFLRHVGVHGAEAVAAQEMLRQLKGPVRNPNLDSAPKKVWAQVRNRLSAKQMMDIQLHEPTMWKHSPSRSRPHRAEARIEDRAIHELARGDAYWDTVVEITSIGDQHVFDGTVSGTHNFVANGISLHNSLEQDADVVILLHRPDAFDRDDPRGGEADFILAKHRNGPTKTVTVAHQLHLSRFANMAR
Briefly: DnaB intein splicing inhibitors, dose response, biochemical, cell-free fluorescence (AID 449749). It is filed as functional.

In assay [10] the test system is Jurkat. Briefly: antigen receptor-induced NF-kB inhibitors, dose response, Jurkat, luciferase reporter, luminescence, B- and T-cell (AID 489004).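 Further: NF-kB luciferase reporter Jurkat cells stimulated with PMA plus ionomycin.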 The assay is classed as functional, cell-based. The conditions noted are these: Homo sapiens.
Assay [11] is described as follows: Luminescent dose response cell-based high throughput screening assay for inhibitors of the Janus kinase 2 mutant JAK2V617F. [Related pubchem assays: 1446 (Primary screen.), 1521 (Confirmation assay.), 1486 (Counter screen.)]. It is filed as functional.
The nature of assay [12]: cells.
A short description of assay [13]: cytotoxicity in HEK-293T NF-kB-Luc cells, dose response, cytotoxicity control for B/T-cell NF-kB inhibitor project, cell-based, uHTS hits (AID 489019).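 Further: IC50 reflects cytotoxicity as loss of cell viability.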 The assay is classed as functional.
Assay [14] deals with T3, Protein RecA (Mycobacterium tuberculosis, UniProt P9WHJ3).
T3 sequence (P9WHJ3 whole entry): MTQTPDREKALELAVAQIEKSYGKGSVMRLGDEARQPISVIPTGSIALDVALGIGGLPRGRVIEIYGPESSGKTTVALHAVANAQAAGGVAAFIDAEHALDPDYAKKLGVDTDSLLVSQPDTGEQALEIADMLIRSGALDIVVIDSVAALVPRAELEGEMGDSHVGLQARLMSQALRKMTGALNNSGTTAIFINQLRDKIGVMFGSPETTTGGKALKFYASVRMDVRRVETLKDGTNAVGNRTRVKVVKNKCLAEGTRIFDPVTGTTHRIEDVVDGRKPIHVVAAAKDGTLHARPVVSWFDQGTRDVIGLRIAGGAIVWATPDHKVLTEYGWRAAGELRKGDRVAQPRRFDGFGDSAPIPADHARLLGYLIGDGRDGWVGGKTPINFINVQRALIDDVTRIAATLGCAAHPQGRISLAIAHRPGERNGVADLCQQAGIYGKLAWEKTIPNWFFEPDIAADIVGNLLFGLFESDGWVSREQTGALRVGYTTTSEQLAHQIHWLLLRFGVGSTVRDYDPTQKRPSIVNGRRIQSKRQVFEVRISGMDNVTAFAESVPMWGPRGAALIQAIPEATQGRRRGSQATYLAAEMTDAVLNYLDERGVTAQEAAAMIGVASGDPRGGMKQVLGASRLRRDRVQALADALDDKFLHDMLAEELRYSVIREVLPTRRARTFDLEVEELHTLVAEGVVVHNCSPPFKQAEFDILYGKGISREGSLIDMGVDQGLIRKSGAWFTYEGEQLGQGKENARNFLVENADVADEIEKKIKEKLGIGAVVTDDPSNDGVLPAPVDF
Briefly: Fluorescence Cell-Free Homogeneous Dose Retest to Identify Inhibitors of RecA-Intein Splicing Activity. [Related pubchem assays (depositor defined):AID2097, AID2223, AID489010, AID492950]. It is filed as functional.

The target of assay [15] is Paired box protein Pax-8 (Homo sapiens, UniProt Q06710). Briefly: inhibitors of PAX8-driven TPO luciferase reporter, dose response, RMG-I cells, cherry-pick (AID 687027).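 Further: luciferase reporter driven by Pax8 target thyroperoxidase promoter measured by SteadyGlo luminescence.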 It is filed as functional, cell-based.
Assay [16] is described as follows: cytotoxicity toward NIH3T3 fibroblasts, dose response, counter-screen, cell-based, ATP luminescence, mouse fibroblasts (AID 2010).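 Further: cells exposed to compound for about 90 hours before reading.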 The assay is classed as functional.
The nature of assay [17]: inhibitors of intracellular T. cruzi replication, confirmation, NIH3T3 host cells, beta-gal luminescence (AID 2044).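 Further: intracellular parasites grown in NIH/3T3 mouse fibroblasts as host cells; luminescent beta-galactosidase reporter signal from transgenic T. cruzi replicating inside host cells; inhibitors lower the luminescence signal.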 The assay is classed as functional, cell-based.
In assay [18] the target is Procathepsin L (Homo sapiens, UniProt P07711). Briefly: cathepsin L inhibitors, dose response, counter-screen for M1/M17 aminopeptidase inhibitor project, biochemical, QFRET, 1536-well (AID 2214).
Assay [19] has as its target T4, Aspartyl aminopeptidase (Plasmodium falciparum 3D7, UniProt Q8I2J3).
T4 sequence (Q8I2J3 whole entry): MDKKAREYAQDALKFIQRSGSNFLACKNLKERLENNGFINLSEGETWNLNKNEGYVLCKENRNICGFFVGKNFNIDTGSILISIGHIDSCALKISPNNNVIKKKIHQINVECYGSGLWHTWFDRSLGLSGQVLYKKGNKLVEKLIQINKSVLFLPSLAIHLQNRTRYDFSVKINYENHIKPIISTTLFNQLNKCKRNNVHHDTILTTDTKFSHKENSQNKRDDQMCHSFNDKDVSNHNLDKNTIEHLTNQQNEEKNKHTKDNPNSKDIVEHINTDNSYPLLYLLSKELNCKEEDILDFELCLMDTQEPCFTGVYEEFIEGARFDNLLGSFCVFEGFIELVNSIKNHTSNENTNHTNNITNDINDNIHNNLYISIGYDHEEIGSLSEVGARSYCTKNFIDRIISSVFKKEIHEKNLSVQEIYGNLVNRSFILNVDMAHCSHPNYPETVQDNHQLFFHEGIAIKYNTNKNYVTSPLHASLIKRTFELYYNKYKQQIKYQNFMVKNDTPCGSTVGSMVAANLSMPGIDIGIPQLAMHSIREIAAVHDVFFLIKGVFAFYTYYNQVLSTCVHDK
Briefly: Counterscreen for inhibitors of M1 and M17 aminopeptidases: QFRET-based biochemical high throughput dose response assay for inhibitors of the Plasmodium falciparum M18 Aspartyl Aminopeptidase (PFM18AAP). [Related PubChem assays: 1619 (Screening assay (M17LAP inhibitors).), 1445 (Screening assay (M1AAP inhibitors).)].

For assay [20], the target named is T5, Leucine aminopeptidase (Plasmodium falciparum 3D7, UniProt Q8IL11).
T5 sequence (Q8IL11 whole entry): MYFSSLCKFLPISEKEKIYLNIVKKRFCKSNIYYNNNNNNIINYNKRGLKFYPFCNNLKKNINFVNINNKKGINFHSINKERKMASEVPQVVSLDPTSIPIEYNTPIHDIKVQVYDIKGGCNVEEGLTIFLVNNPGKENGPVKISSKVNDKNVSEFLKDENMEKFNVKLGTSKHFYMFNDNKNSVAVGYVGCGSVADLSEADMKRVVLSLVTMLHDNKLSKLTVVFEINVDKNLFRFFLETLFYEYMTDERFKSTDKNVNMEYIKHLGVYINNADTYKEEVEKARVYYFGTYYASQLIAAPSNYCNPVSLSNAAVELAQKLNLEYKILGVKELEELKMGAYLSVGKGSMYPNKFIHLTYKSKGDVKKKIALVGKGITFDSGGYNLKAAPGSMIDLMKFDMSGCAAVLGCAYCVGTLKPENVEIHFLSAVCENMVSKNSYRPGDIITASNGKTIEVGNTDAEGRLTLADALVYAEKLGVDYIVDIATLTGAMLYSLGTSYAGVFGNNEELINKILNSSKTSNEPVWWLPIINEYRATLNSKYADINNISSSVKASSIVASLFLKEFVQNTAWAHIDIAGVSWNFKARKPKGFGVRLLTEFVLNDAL
Briefly: P. falciparum M17LAP inhibitors, primary screen, biochemical, fluorogenic H-Leu-NHMec substrate, 1536-well (AID 1619). The assay is classed as functional.

In assay [21] the target is Sphingosine 1-phosphate receptor 2 (Homo sapiens, UniProt O95136). Briefly: Dose Response Cell Based Assay for Agonists of the S1P2 Receptor of Purchased Analogues. [Related pubchem assays: 729, 843, 854, 736 ]. The assay is classed as functional.
Assay [22] addresses T6, E3 ubiquitin-protein ligase XIAP (Homo sapiens, UniProt P98170). Briefly: Counter Screen using XIAP-Bir3 for Chemical Antagonists of Bir1/2 domains of IAP-family anti-apoptotic proteins. [Related pubchem assays (depositor defined):AID1018, AID1449, AID1514, AID1638, AID1749, AID1750, AID488957, AID488963].
Assay [23] has as its target T6, E3 ubiquitin-protein ligase XIAP. Briefly: XIAP antagonists, biochemical, IAP family, fluorescence polarization (AID 1018). The assay is classed as functional.

T6 sequence (P98170 whole entry): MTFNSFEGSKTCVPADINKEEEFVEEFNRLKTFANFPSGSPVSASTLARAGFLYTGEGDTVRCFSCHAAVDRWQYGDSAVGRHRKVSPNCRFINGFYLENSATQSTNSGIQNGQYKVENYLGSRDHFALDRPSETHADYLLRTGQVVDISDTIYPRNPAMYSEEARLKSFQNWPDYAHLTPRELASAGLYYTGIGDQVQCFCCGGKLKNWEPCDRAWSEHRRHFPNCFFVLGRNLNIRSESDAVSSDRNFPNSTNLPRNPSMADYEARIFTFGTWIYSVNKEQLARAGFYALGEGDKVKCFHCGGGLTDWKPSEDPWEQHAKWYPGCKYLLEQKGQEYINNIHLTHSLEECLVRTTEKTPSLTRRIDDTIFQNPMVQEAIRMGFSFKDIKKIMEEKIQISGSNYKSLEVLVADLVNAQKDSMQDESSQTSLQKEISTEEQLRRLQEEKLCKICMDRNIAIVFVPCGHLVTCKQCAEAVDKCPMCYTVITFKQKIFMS
NADPH oxidase 1, sequence (Q9Y5S8 whole entry): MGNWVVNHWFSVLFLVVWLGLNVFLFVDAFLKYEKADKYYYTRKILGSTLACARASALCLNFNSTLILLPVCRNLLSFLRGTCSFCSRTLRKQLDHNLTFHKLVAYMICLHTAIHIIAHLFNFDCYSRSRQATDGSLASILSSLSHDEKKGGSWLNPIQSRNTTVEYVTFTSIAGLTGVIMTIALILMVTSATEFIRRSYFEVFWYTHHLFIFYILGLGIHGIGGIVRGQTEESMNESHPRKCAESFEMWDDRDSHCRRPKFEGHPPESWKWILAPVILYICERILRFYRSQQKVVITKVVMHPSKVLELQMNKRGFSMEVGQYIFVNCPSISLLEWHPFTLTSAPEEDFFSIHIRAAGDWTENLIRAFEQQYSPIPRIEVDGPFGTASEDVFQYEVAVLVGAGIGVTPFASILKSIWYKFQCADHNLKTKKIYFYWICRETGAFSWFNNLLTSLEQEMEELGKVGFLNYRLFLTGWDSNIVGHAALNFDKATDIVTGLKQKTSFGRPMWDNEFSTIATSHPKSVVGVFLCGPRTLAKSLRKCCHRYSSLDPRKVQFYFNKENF
Paired box protein Pax-8, sequence (Q06710 whole entry): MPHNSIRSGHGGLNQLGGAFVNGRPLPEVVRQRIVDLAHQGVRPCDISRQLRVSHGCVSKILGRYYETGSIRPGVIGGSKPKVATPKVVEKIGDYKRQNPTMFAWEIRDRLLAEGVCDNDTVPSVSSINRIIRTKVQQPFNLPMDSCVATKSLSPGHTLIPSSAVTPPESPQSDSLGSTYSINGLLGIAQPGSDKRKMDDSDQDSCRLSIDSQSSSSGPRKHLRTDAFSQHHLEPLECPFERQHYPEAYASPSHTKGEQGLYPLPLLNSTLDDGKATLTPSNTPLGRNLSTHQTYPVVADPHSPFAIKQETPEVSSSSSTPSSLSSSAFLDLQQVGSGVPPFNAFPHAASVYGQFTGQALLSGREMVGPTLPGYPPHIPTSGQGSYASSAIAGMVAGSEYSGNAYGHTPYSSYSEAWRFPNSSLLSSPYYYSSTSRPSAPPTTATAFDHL
Sphingosine 1-phosphate receptor 2, sequence (O95136 whole entry): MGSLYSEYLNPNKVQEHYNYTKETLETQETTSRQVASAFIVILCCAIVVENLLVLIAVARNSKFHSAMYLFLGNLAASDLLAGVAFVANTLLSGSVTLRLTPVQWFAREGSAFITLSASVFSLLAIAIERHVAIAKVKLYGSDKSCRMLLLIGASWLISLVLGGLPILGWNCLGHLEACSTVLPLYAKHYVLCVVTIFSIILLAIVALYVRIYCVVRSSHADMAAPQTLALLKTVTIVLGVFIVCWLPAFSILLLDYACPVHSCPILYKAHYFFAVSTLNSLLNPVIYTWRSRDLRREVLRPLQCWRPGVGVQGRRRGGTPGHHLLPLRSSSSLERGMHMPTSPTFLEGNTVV
Procathepsin L, sequence (P07711 whole entry): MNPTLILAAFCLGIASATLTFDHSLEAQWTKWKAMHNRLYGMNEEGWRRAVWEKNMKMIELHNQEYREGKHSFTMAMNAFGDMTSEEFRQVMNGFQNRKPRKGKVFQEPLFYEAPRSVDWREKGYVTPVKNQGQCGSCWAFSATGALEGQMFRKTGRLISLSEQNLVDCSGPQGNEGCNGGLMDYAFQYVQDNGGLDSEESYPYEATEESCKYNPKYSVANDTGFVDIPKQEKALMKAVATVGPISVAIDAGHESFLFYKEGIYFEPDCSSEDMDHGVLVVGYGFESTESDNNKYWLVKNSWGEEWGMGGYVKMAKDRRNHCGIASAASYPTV

Turning to `CC1(C)CC(=O)/C(=N/Nc2ccc(Cl)cc2)CO1`, the EC50 is 504 nM (active) in [1]; < 100 nM (active) in assay [2]; 324 nM (active) in assay [3]; 207 nM (active) in [4]; 422 nM (active) in assay [5].

In the case of `COc1ccccc1OC(=O)c1sc2ccccc2c1Cl`, the half-inhibitory concentration (IC50) in [6] is > 17000 nM (not active).

Turning to `O=C(CCl)/N=c1\sccn1Cc1ccc(Cl)cc1Cl`, the half-maximal activity concentration (AC50) in assay [7] is 2540 nM (active); in assay [9], 27200 nM (active); in assay [15], 1360 nM (active). Further, the EC50 was 361 nM (active) in assay [8]; < 4 nM (active) in assay [12]; 15100 nM (active) in assay [14]; 192 nM (active) in assay [16]; < 100 nM (active) in assay [17]. Moreover, the figures for the IC50 in assay [10], in assay [11] and in [13] were < 160 nM (active), 235 nM (active) and > 80000 nM (inactive), respectively.

Turning to `COc1ccc(-c2cc(=O)[nH][nH]2)cc1OC`, the IC50 in assay [18] was > 59600 nM (not active); in [19] it was > 73500 nM (not active); in assay [20], 7860 nM (active). The AC50 in assay [9] is 1010 nM (active). In [14], the EC50 is 380 nM (active).

`Cc1cc(C(=O)CSc2nnnn2C)c(C)n1Cc1ccccc1`: the EC50 in assay [21] is 30000 nM (not active).

With `O=C(NC(=S)NC1CC1)c1cccnc1`, the results for the IC50 in [22] and in [23] were > 100000 nM (inactive) and > 100000 nM (not active), respectively.
